Data reported in patent US7410963B2, “Benzo-1,4-diazepin-2-one derivatives as phosphodiesterase PDE2 inhibitors, preparation and therapeutic use thereof” (VIA Pharmaceuticals, Inc., priority 2003, dated 2008).
pIC50: −log10 of the molar value. Like-named read-outs stand apart in the source and are kept apart here.

How the values were obtained:
[1] = target: T1, PDE2 (Bos taurus, UniProt P14099); test: Radioenzymatic phosphodiesterase assay: PDE2 inhibition; type: biochemical, bovine; conditions: read-out: PDE2 percentage of inhibition at 10 μM
T1 sequence (P14099 1-921): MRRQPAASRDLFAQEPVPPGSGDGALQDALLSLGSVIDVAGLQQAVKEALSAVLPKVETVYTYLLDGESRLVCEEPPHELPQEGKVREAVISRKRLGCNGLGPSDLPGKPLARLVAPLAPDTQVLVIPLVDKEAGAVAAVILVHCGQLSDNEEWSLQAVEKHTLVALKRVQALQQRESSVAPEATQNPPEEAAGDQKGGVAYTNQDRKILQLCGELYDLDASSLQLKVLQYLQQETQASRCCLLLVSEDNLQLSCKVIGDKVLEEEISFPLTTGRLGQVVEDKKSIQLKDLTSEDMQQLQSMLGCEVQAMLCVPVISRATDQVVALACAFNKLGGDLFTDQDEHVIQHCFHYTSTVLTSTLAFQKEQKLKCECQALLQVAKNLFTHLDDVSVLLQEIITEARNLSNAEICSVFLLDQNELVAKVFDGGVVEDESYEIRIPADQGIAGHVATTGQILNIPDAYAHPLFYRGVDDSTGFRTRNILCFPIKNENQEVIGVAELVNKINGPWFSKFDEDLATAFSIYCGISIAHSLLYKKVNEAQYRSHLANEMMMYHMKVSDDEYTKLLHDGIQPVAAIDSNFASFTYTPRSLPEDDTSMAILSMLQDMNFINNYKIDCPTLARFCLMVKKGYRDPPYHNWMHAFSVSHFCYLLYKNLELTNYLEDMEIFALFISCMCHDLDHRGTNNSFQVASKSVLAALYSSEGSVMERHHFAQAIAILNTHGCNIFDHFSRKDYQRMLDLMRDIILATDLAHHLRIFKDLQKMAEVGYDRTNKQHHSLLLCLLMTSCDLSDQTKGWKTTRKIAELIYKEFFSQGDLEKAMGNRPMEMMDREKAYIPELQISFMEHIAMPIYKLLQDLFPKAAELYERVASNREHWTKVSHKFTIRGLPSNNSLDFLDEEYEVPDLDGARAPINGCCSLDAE
Experimental: Nucleoside radioactivity was determined by liquid scintillation.

[2] = tested on: PDE3; test: Radioenzymatic phosphodiesterase assay: PDE3 inhibition (selectivity); conditions: Table 2; 10 μM test compound; PDE3 of vascular smooth muscle
Experimental: (§1) 3 g of tunica media from bovine aorta was cut in small piece and homogenized in a glass potter with 7 volumes/weight of buffer A containing protease inhibitors cocktails (20 mM Tris-HCl, 0.25 M saccharose, 2 mM magnesium acetate, 1 mM dithiothreitol, 5 mM EGTA, 2000 U/ml aprotinine, 10 mg/l leupeptine, 10 mg/l of soybean chemotrypsin inhibitor). The homogenate was centrifuged at 875000 g for 1 h and the surpernant was then transferred in DEAE-Sephacel (15×1.6 cm). The column was equilibrated beforehand with a buffer B (buffer A without saccharose, d'EGTA and protease inhibitors). […] Fractions were aliquoted and stored at −80° C. until further use.
(§2) The monophosphated adenosine or guanosine released by the hydrolysis of tritiated cyclic nucleotides was transformed into tritiated adenosine or guanosine by excess of nucleotidase. The obtained nucleoside was separated from nucleotides by anion exchange chromatography. Nucleoside radioactivity was determined by liquid scintillation.
(§3) The phosphodiesterase inhibitory activity of compounds was evaluated on other isoforms of phosphodiesterases such as PDE3, and PDE4 of vascular smooth muscle.

[3] = tested on: PDE4; test: Radioenzymatic phosphodiesterase assay: PDE4 inhibition (selectivity); conditions: Table 2, PDE4 of vascular smooth muscle; for PDE4 percentage of inhibition at 10 μM: 10 μM test compound
Experimental: as §1, §2, §3

COc1ccccc1-c1cc2c(cc1OC)N(C)C(=O)CN=C2c1cccc(C(N)=O)c1 [Example 21, 3-[8-Methoxy-7-(2-methoxy-phenyl)-1-methyl-2-oxo-2,3-dihydro-1H-benzo[e][1,4]diazepin-5-yl]-benzamide]
inhibition at 10 µM ([1]; Table 1, 10 μM test compound): 98% | PDE3 percentage of inhibition at 10 μM [2]: 9% | PDE4 percentage of inhibition at 10 μM [3]: 18%

COc1ccc(-c2cc3c(cc2OC)N(C)C(=O)CN=C3c2cccc(C(N)=O)c2)cc1 [Example 22, 3-[8-Methoxy-7-(4-methoxy-phenyl)-1-methyl-2-oxo-2,3-dihydro-1H-benzo[e][1,4]diazepin-5-yl]-benzamide]
inhibition at 10 µM ([1]; Table 1, 10 μM test compound): 99% | PDE3 percentage of inhibition at 10 μM [2]: 22% | PDE4 percentage of inhibition at 10 μM [3]: 50%

COc1cc2c(cc1-c1ccccc1Cl)C(c1cccc(C(N)=O)c1)=NCC(=O)N2C [Example 23, 3-[7-(2-Chloro-phenyl)-8-methoxy-1-methyl-2-oxo-2,3-dihydro-1H-benzo[e][1,4]diazepin-5-yl]-benzamide]
inhibition at 10 µM ([1]; Table 1, 10 μM test compound): 95% | PDE3 percentage of inhibition at 10 μM [2]: 25% | PDE4 percentage of inhibition at 10 μM [3]: 20%

COc1ccc(OC)c(-c2ccc3c(c2)C(c2cccc(C(N)=O)c2)=NCC(=O)N3C)c1 [Example 31, 3-[7-(2,5-Dimethoxy-phenyl)-1-methyl-2-oxo-2,3-dihydro-1H-benzo[e][1,4]diazepin-5-yl]-benzamide]
inhibition at 10 µM ([1]; Table 1, 10 μM test compound): 99% | PDE3 percentage of inhibition at 10 μM [2]: 0% | PDE4 percentage of inhibition at 10 μM [3]: 25%

COc1cccc(OC)c1-c1ccc2c(c1)C(c1cccc(C(N)=O)c1)=NCC(=O)N2C [Example 32, 3-[7-(2,6-Dimethoxy-phenyl)-1-methyl-2-oxo-2,3-dihydro-1H-benzo[e][1,4]diazepin-5-yl]-benzamide]
inhibition at 10 µM ([1]; Table 1, 10 μM test compound): 100% | PDE3 percentage of inhibition at 10 μM [2]: 0% | PDE4 percentage of inhibition at 10 μM [3]: 27%

COc1ccc(C2=NCC(=O)N(C)c3ccc(-c4c(OC)cccc4OC)cc32)cc1 [Example 75, 7-(2,6-Dimethoxy-phenyl)-5-(4-methoxy-phenyl)-1-methyl-1,3-dihydro-benzo[e][1,4]diazepin-2-one]
inhibition at 10 µM ([1]; Table 1, 10 μM test compound): 99% | PDE3 percentage of inhibition at 10 μM [2]: 4% | PDE4 percentage of inhibition at 10 μM [3]: 78%

COc1cc2c(cc1-c1c(OC)cccc1OC)C(c1cccc(C(N)=O)c1)=NCC(=O)N2C [Example 92, 3-[7-(2,6-Dimethoxy-phenyl)-8-methoxy-1-methyl-2-oxo-2,3-dihydro-1H-benzo[e][1,4]diazepin-5-yl]-benzamide]
inhibition at 10 µM ([1]; Table 1, 10 μM test compound): 97% | PDE3 percentage of inhibition at 10 μM [2]: 52% | PDE4 percentage of inhibition at 10 μM [3]: 23%

COc1cc2c(cc1-c1ccccc1Oc1ccccc1)C(c1cccc(C(N)=O)c1)=NCC(=O)N2C [Example 93, 3-[8-Methoxy-1-methyl-2-oxo-7-(2-phenoxy-phenyl)-2,3-dihydro-1H-benzo[e][1,4]diazepin-5-yl]-benzamide]
inhibition at 10 µM ([1]; Table 1, 10 μM test compound): 98% | PDE3 percentage of inhibition at 10 μM [2]: 72% | PDE4 percentage of inhibition at 10 μM [3]: 56%

COc1cccc(OC)c1-c1ccc2c(c1)C(c1ccc(F)cc1)=NCC(=O)N2C [Example 100, 7-(2,6-Dimethoxy-phenyl)-5-(4-fluoro-phenyl)-1-methyl-1,3-dihydro-benzo[e][1,4]diazepin-2-one]
inhibition at 10 µM [1]: 96% | PDE3 percentage of inhibition at 10 μM [2]: 0% | PDE4 percentage of inhibition at 10 μM [3]: 77%

COCCCc1ccc(C2=NCC(=O)N(C)c3cc(OC)c(-c4ccccc4)cc32)cc1 [Example 106, 8-Methoxy-5-[4-(3-methoxy-propyl)-phenyl]-1-methyl-7-phenyl-1,3-dihydro-benzo[e][1,4]diazepin-2-one]
inhibition at 10 µM [1]: 47%

COc1cc2c(cc1-c1ccccc1)C(c1ccc(CCCNC(=O)OC(C)(C)C)cc1)=NCC(=O)N2C [Example 107, {3-[4-(8-Methoxy-1-methyl-2-oxo-7-phenyl-2,3-dihydro-1H-benzo[e][1,4]diazepin-5-yl)-phenyl]-propyl}-carbamic acid tert-butyl ester]
inhibition at 10 µM [1]: 92%

COc1ccc(C2=NCC(=O)N(C)c3cc(OC)c(-c4ccccc4OC)cc32)cc1 [Example 108, 8-Methoxy-5-(4-methoxy-phenyl)-7-(2-methoxy-phenyl)-1-methyl-1,3-dihydro-benzo[e][1,4]diazepin-2-one]
inhibition at 10 µM [1]: 99%

COc1ccc(C2=NCC(=O)N(C)c3cc(OC)c(-c4c(OC)cccc4OC)cc32)cc1 [Example 109, 7-(2,6-Dimethoxy-phenyl)-8-methoxy-5-(4-methoxy-phenyl)-1-methyl-1,3-dihydro-benzo[e][1,4]diazepin-2-one]
inhibition at 10 µM ([1]; Table 1, 10 μM test compound): 99% | PDE3 percentage of inhibition at 10 μM [2]: 37% | PDE4 percentage of inhibition at 10 μM [3]: 90% | pIC50 ([3]; read-out: PDE4 IC50): 6.00

COc1ccc(C2=NCC(=O)N(C)c3cc(OC)c(-c4cc(OC)ccc4OC)cc32)cc1 [Example 110, 7-(2,5-Dimethoxy-phenyl)-8-methoxy-5-(4-methoxy-phenyl)-1-methyl-1,3-dihydro-benzo[e][1,4]diazepin-2-one]
inhibition at 10 µM [1]: 99%

COc1ccc(C2=NCC(=O)N(C)c3cc(OC)c(-c4c(F)cccc4OC)cc32)cc1 [Example 111, 7-(2-Fluoro-6-methoxy-phenyl)-8-methoxy-5-(4-methoxy-phenyl)-1-methyl-1,3-dihydro-benzo[e][1,4]diazepin-2-one]
inhibition at 10 µM [1]: 99%

COc1ccc(C2=NCC(=O)N(C)c3cc(OC)c(-c4ccccc4Oc4ccccc4)cc32)cc1 [Example 112, 8-Methoxy-5-(4-methoxy-phenyl)-1-methyl-7-(2-phenoxy-phenyl)-1,3-dihydro-benzo[e][1,4]diazepin-2-one]
inhibition at 10 µM [1]: 99%

COc1cc2c(cc1-c1ccccc1)C(c1ccc(Br)cc1)=NCC(=O)N2C [Example 113, 5-(4-Bromo-phenyl)-8-methoxy-1-methyl-7-phenyl-1,3-dihydro-benzo[e][1,4]diazepin-2-one]
inhibition at 10 µM ([1]; Table 1, 10 μM test compound): 94%

COc1cc2c(cc1-c1ccccc1)C(c1ccc(Br)cc1)=NCC(=O)N2 [Example 114, 5-(4-Bromo-phenyl)-8-methoxy-7-phenyl-1,3-dihydro-benzo[e][1,4]diazepin-2-one]
inhibition at 10 µM ([1]; Table 1, 10 μM test compound): 72%

COc1cccc(OC)c1-c1ccc2c(c1)C(c1cccc(C)c1)=NCC(=O)N2C [Example 115, 7-(2,6-Dimethoxy-phenyl)-1-methyl-5-m-tolyl-1,3-dihydro-benzo[e][1,4]diazepin-2-one]
inhibition at 10 µM [1]: 96% | PDE3 percentage of inhibition at 10 μM [2]: 3% | PDE4 percentage of inhibition at 10 μM [3]: 42%
